Assay results as given in patent publication US12440496B2, “Natriuretic peptide receptor a agonists useful for the treatment of cardiometabolic diseases, kidney disease and diabetes” (Merck Sharp & Dohme LLC, priority 2019, dated 2025).
Structures can show the parent of a compound that is named as a salt.

target: T1, hNPRA (Homo sapiens, UniProt P16066); assay: NPRA Functional Cell Assay (cGMP HTRF, NPRA HEK JumpIn stable cells); format: cell-based; conditions: cGMP production, 1 hour at 37° C., 10-point dose response
T1 construct: expressed in transfected cells
T1 sequence (P16066 33-1061): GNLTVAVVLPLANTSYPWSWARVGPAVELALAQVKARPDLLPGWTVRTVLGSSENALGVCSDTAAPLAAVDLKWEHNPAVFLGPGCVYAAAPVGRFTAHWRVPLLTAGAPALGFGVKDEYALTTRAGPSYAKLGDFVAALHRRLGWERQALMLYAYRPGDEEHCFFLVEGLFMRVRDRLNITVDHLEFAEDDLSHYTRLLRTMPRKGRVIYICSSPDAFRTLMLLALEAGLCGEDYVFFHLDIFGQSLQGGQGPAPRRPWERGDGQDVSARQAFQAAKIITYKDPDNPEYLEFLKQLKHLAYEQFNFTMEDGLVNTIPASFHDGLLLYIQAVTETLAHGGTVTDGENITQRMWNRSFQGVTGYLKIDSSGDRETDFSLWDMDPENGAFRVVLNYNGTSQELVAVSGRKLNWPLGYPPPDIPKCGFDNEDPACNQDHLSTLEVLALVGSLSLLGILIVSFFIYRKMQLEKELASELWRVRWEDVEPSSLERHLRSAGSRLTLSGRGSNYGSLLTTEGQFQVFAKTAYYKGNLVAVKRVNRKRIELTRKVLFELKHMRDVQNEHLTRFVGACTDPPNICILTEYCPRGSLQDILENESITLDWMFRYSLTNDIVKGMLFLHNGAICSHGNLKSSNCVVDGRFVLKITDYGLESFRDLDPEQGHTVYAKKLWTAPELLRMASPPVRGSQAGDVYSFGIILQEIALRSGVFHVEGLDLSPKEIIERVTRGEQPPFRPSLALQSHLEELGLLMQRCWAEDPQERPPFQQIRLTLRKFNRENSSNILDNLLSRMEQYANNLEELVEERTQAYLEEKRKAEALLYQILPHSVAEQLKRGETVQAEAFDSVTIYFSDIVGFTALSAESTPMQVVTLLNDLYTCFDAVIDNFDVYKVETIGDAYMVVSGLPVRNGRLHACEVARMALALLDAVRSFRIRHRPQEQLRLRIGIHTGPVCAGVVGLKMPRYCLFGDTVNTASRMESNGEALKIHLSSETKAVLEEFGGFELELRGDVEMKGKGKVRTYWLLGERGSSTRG
Method in brief: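 cGMP HTRF read-out after 1 hour compound treatment at 37° C. of human NPRA-expressing HEK JumpIn cells, 1500 cells/well, in buffer with phosphodiesterase inhibitors IBMX and RO20 (100 uM each). Signal converted to [cGMP] by calibration curve; EC50s fitted by 4-parameter logistic; 50 nM h-ANP as positive response.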

Compared with CC(C)(C)[C@H]1CCc2nc3sc(C(=O)N[C@H](CCN4CCC(O)CC4)c4cccc(C(=O)N5CC(CN6CCCC6)C5)c4)nc3cc2C1 (racemic) [Example 132, rac-(7S)-7-tert-butyl-N-[rac-(1R)-3-(4-hydroxy-1-piperidyl)-1-[3-[3-(pyrrolidin-1-ylmethyl)azetidine-1-carbonyl]phenyl]propyl]-5,6,7,8-tetrahydrothiazolo[5,4-b]quinoline-2-carboxamide], CC(C)(C)[C@H]1CCc2nc3sc(C(=O)N[C@H](CCN4CCC(O)CC4)c4cccc(N5CCNC5=O)c4)nc3cc2C1 (racemic) [Example 117, rac-(7S)-7-tert-butyl-N-[rac-(1R)-3-(4-hydroxypiperidin-1-ium-1-yl)-1-[3-(2-oxoimidazolidin-1-yl)phenyl]propyl]-5,6,7,8-tetrahydrothiazolo[5,4-b] quinoline-2-carboxamide; 2,2,2-trifluoroacetate] is 7.8-fold higher in EC50: 0.102 µM for the first, 0.795 µM for the second. The first is the more potent here.

CN(C)CC[C@@H](NC(=O)c1nc2cc3c(nc2s1)CC[C@H](C(C)(C)C)C3)c1ccc(-c2ccc(=O)[nH]c2)cc1 (racemic) [Example 76, rac-(7S)-7-tert-butyl-N-[rac-(1R)-3-(dimethylamino)-1-[4-(6-oxo-1H-pyridin-3-yl)phenyl]propyl]-5,6,7,8-tetrahydrothiazolo[5,4-b]quinoline-2-carboxamide] and CC1(CN)CN(CC[C@@H](NC(=O)c2cc3cc4c(nc3s2)CC[C@H](C(C)(C)C)C4)c2ccc(-c3ccc(=O)[nH]c3)cc2)C1 (racemic) [Example 46, [3-methyl-1-[rac-(3R)-3-[4-(6-oxo-1H-pyridin-3-yl)phenyl]-3-[[rac-(6S)-6-tert-butyl-5,6,7,8-tetrahydrothieno[2,3-b]quinoline-2-carbonyl]amino]propyl]azetidin-3-yl]methylammonium;formate] are within 1.5-fold of each other in EC50: 0.665 µM for the first, 0.673 µM for the second.

COC(=O)C1CCN(CC[C@@H](NC(=O)c2nc3cc4c(nc3s2)CC[C@H](C(C)(C)C)C4)c2cccc(C(=O)NC3CN(C)C3)c2)CC1 (racemic) [Example 114, methyl 1-[rac-(3R)-3-[3-[(1-methylazetidin-1-ium-3-yl)carbamoyl]phenyl]-3-[[rac-(7S)-7-tert-butyl-5,6,7,8-tetrahydrothiazolo[5,4-b]quinoline-2-carbonyl]amino]propyl] piperidine-4-carboxylate; 2,2,2-trifluoroacetate] and CC(C)(C)[C@H]1CCc2nc3sc(C(=O)N[C@H](CCN4CCC(C(=O)O)CC4)c4cccc(C(=O)NC5CNC5)c4)nc3cc2C1 (racemic) [Example 122, 1-[rac-(3R)-3-[3-(azetidin-1-ium-3-ylcarbamoyl)phenyl]-3-[rac-(7S)-7-tert-butyl-5,6,7,8-tetrahydrothiazolo [5,4-b]quinoline-2-carbonyl]amino]propyl] piperidine-4-carboxylic acid; 2,2,2-trifluoroacetate] are within 1.5-fold of each other in EC50: 0.671 µM for the first, 0.637 µM for the second.

Compared with CC(C)(C)[C@H]1CCc2nc3sc(C(=O)N[C@H](CCN4CCC(O)CC4)c4cccc(NC(=O)C5CCNC5)c4)nc3cc2C1 (mixture of isomers) [Example 118, rac-(7S)-7-tert-butyl-N-[rac-(1R)-3-(4-hydroxy-1-piperidyl)-1-[3-(pyrrolidin-1-ium-3-carbonylamino)phenyl]propyl]-5,6,7,8-tetrahydrothiazolo[5,4-b] quinoline-2-carboxamide; 2,2,2 trifluoroacetate], CC(C)(C)[C@H]1CCc2nc3sc(C(=O)N[C@H](CCN4CCC(O)CC4)c4ccc(-c5ccc(O)nn5)cc4)nc3cc2C1 (racemic) [Example 165, rac-(7S)-7-tert-butyl-N-[rac-(1R)-3-(4-hydroxypiperidin-1-ium-1-yl)-1-[4-(6-hydroxypyridazin-3-yl)phenyl]propyl]-5,6,7,8-tetrahydrothiazolo[5,4-b]quinoline-2-carboxamide; 2,2,2-trifluoroacetate] is 1.6-fold lower in EC50: 0.985 µM for the first, 0.611 µM for the second.

Going from CC(C)(C)[C@H]1CCc2nc3sc(C(=O)N[C@H](CCN4CCCC(C(=O)O)C4)c4ccc(-c5ccc(=O)[nH]c5)cc4)cc3cc2C1 (mixture of isomers) [Example 56, 1-[rac-(3R)-3-[4-(6-oxo-1H-pyridin-3-yl)phenyl]-3-[[rac-(6S)-6-tert-butyl-5,6,7,8-tetrahydrothieno[2,3-b]quinoline-2-carbonyl]amino]propyl]piper idin-1-ium-3-carboxylic acid;formate] to CC(C)(C)[C@H]1CCc2nc3sc(C(=O)N[C@H](CCNC4CCOCC4)c4ccccc4)cc3cc2C1 [Example 248, (6S)-6-tert-butyl-N-[(1R)-1-phenyl-3-(tetrahydro-2H-pyran-4-ylamino)propyl]-5,6,7,8-tetrahydrothieno[2,3-b]quinoline-2-carboxamide], the EC50 rises from 0.811 µM to 6.32 µM (7.8-fold). The first is the more potent here.

Going from O=C(N[C@H](CCN1CCC(O)CC1)c1ccc(-c2cn[nH]c2)cc1)c1nc2cc3c(nc2s1)CC[C@H](C1(C(F)(F)F)CC1)C3 [Example 268, (S)-N-((R)-1-(4-(1H-pyrazol-4-yl)phenyl)-3-(4-hydroxypiperidin-1-yl)propyl)-7-(1-(trifluoromethyl)cyclopropyl)-5,6,7,8-tetrahydrothiazolo[5,4-b]quinoline-2-carboxamide] to CC1([C@H]2CCc3nc4sc(C(=O)N[C@H](CCN5CCC(O)CC5)c5ccc(N6CCOC6=O)cc5)nc4cc3C2)CC1 [Example 231, (S)-N-((R)-3-(4-hydroxypiperidin-1-yl)-1-(4-(2-oxooxazolidin-3-yl)phenyl)propyl)-7-(1-methylcyclopropyl)-5,6,7,8-tetrahydrothiazolo[5,4-b]quinoline-2-carboxamide], the EC50 falls from 2.03 µM to 0.725 µM (2.8-fold). The second is the more potent here.

Going from CN1CC(NC(=O)c2cccc([C@@H](CCN3CCC(c4cccc(C(=O)O)c4)CC3)NC(=O)c3nc4cc5c(nc4s3)CC[C@H](C(C)(C)C)C5)c2)C1 (racemic) [Example 107, 3-[1-[rac-(3R)-3-[3-[(1-methylazetidin-1-ium-3-yl)carbamoyl]phenyl]-3-[rac-(7S)-7-tert-butyl-5,6,7,8-tetrahydrothiazolo[5,4-b]quinoline-2-carbonyl]amino]propyl]-4-piperidyl]benzoic acid; 2,2,2-trifluoroacetate] to CN(C)CC[C@@H](NC(=O)c1nc2cc3c(nc2s1)CC[C@H](C(C)(C)C)C3)c1cccc(C(=O)N[C@@H]2CNC[C@H]2O)c1 (racemic) [Example 90, rac-(7S)-7-tert-butyl-N-[rac-(1R)-3-(dimethylamino)-1-[3-[[rac-(3R,4R)-4-hydroxypyrrolidin-3-yl]carbamoyl]phenyl]propyl]-5,6,7,8-tetrahydrothiazolo[5,4-b] quinoline-2-carboxamide], the EC50 falls from 0.526 µM to 0.271 µM (1.9-fold). The second is the more potent here.

In the case of CC(C)[C@]1(F)CCc2nc3sc(C(=O)N[C@H](CCN4CCC(O)CC4)c4ccc(N5CC(=O)NC5=O)nc4)nc3cc2C1 [Example 219, (S)-N-((R)-1-(6-(2,4-dioxoimidazolidin-1-yl)pyridin-3-yl)-3-(4-hydroxypiperidin-1-yl)propyl)-7-fluoro-7-isopropyl-5,6,7,8-tetrahydrothiazolo[5,4-b]quinoline-2-carboxamide], the EC50 is reported as 0.384 µM.
